Reference: patent US11046647B2, “Activators of the unfolded protein response” (The Board of Trustees of the University of Illinois, priority 2018, dated 2021)

Key:
[1] = tested on: ERα Negative MCF-10A cells; assay: Trypan Blue exclusion cell death assay, MCF-10A; type: cell-based; conditions: 75 nM, 24 hours
Excerpt: (§1) TRYPAN BLUE: For decades, viable cells have been measured by their ability to exclude the dye Trypan Blue. […] Dead cells, which have lost membrane integrity, take up the dye and are blue. Thus, the percentage of dead cells is the percentage of cells that are Trypan Blue positive out of the total cell population. Quantitative assessment of Trypan Blue uptake uses a cell counter from Fisher. Since the assay is instrument based, there is no observer bias in determining the percentage of Trypan Blue positive cells.
(§2) TRYPAN BLUE ASSAYS: Assays are performed on cells in 6 well plates: 300,000 cells are plated in each well of a 6-well plate in 3 ml of medium. After 24 hours, the DMSO vehicle or the indicated compound is added (in 1000th of the vol.) The cells incubated for an additional 24 hours, and then harvested in 0.25 ml of trypsin, followed after harvest by 0.75 ml of medium. The cells are spun down and resuspended in 100-200 μl of medium left that is over the cell pellet (resuspend cells by pipetting up and down a few times). Add 10 μl to 10 μl of trypan blue. Then 10 μl is inserted into the counting slide. After inserting the slide into the Fisher TC20 counting is automatic (these many cells are needed because an accurate ratio of Trypan Blue positive to Trypan Blue negative cells requires about 200 cells in the field the instrument counts).
In FIG. 28, neither the test compounds nor BHPI kill non-tumorigenic ERα Negative MCF-10A breast cells. ERα Negative MCF-10A cells were maintained for 24 hours in DMSO vehicle or 75 nM of BHPI or 75 nM of each of the indicated test compounds: 4, 6 and 105. Cell death was determined using the instrument-based Trypan Blue exclusion assay. (n=3±SEM).

[2] = tested on: CaOV-3 ovarian cancer cells; assay: Automated Trypan Blue exclusion cell death assay, Caov-3; type: cell-based, human; conditions: 24 hours
Protocol: FIG. 33. 105, but not BHPI, kills therapy-resistant ovarian CaOV-3 ovarian cancer cells. (±)-105; Cell death assay: Automated Trypan Blue exclusion. (24 hours post (±)-105)
as §1
as §2, with “After inserting the slide into the Fisher TC20 counting is automatic (these many cells are needed because an accurate ratio of Trypan Blue positive to Trypan Blue negative cells requires about 200 cells in the field the instrument counts).” left out

T47D cells [3] = conditions: 100, 500 and 1,000 nM; 24 hours; n=1
Protocol: One such change is loss of plasma membrane polarity. This is monitored using Annexin V. Dying cells also take up the dye propidium iodide. Propidium iodide (PI) fluoresces when it is intercalated into DNA. These assays monitor cells at specific stages of cell death.
FLOW CYTOMETRY (FITC) ASSAYS: Cells were seeded in 12-well plates, 75,000 cells/well, and allowed to adhere overnight. The next day, the indicated concentrations of raptinal (positive control), (−)-105, (±)-105, and (+)-105 were added and allowed to incubate at 37° C. for 24 hours (Final Volume: 1 ml, 0.1% DMSO). After incubation, cells were harvested and resuspended in 350 μl of cold Annexin binding buffer (10 mM HEPES, 140 mM NaCl, 2.5 mM CaCl2, pH 7.4) premixed with Annexin V-FITC and PI dyes. Samples were analyzed on a BD Biosciences LSRII flow cytometer, and data analysis was performed using FSC Express Version 5-6. Cell death was assessed relative to a DMSO treated control.
T47D, human breast cancer cells were plated at 75,000 cells/well. The next day, DMSO vehicle, 10 μM raptinal (control for 100% cell death), or 0, 50, 100 500 and 1,000 nM of BHPI or (±)-105, or 1,000 nM ICI/fulvestrant or 1,000 nM OHT was added. After 24 hours viable cells were determined by FACS using annexin V-FITC and propidium iodide dyes. (n=3 independent experiments ±SEM).
75,000 ERα positive T47D, human breast cancer cells, were plated/well. The next day, DMSO vehicle, 10 μM raptinal (control for 100% cell death), or 100 500 and 1,000 nM of (+)-105, or (−)-105 was added. After 24 hours viable cells were determined by FACS using annexin V-FITC and propidium iodide dyes. (n=1).

[4] = tested on: MCF-7Y537S (MCF-7 ERαY537S-luciferase) cells; assay: Long-term cell culture experiment, MCF-7 ERαY537S-luciferase; type: cell-based, human; conditions: conditions as FIG. 15 (1 μM)
[5] = tested on: sp-XBP1 mRNA (unfolded protein response); assay: Induction of spliced XBP-1 mRNA (qRT-PCR), T47D-luciferase cells; type: cell-based, human; conditions: 100 nM
Protocol: ERα positive T47D-luciferase human breast cancer cells, were maintained for the indicated times in vehicle (Ctl, Control), 100 nM BHPI or 100 nM (−)-105. At the indicated times RNA was isolated and levels of sp-XBP1 mRNA quantitated by qRT-PCR. (n=3 ±SEM).

T47D cells [6] = assay: 24-hour crystal violet assay; type: cell-based, human
Protocol: FIG. 36. Discovery of SERK-F6 (also known as, C(−)-105, (−)-105, (R)-105, (−)-1, or (R)-1), a compound that kills ERα-positive cancer cells, a, Chemical structures of BHPI and racemic compound 1 (i.e. (±)-1), and their cytotoxic activity on T47D breast cancer cells after 24-hour incubations with concentrations as indicated in nM. Cells were stained with annexin V-FITC and PI dyes prior to analysis via flow cytometry. […] Cells were incubated with SERK-F6 or positive control, Raptinal, for 24 hours and then stained with annexin V-FITC and PI dyes and analyzed via flow cytometry. Error bars represent S.E.M of 3 independent replicates. c, IC50 values of SERK-F6 after 24-hour incubation against a panel of cancer cell lines grouped by their reported ERα status. Cell viability was measured by Alamar blue fluorescence and set relative to a vehicle control and a quantitative dead control treated with Raptinal. Error bars represent S.E.M of 3 independent experiments. d, Crystal violet staining of T47D cells after 24-hour incubations with compounds and concentrations as indicated. Image is representative of 2 independent experiments. e,f, Long-term cell culture experiment with T47D, TDG, and TYS cells. Cells were incubated for 2 weeks with compounds (1 μM), followed by compound washout, and cells were cultured for 2 months. Cell number was determined by MTS.

| SMILES | cell death of MCF-10A cells [1] | killing of Caov-3 cells [2] | activity of enantiomers (cell death) (T47D cells [3]) | eradication of cells in long-term experiment [4] | UPR activation / induction of sp-XBP1 [5] | cell killing (T47D cells [6]) |
| --- | --- | --- | --- | --- | --- | --- |
| O=C1Nc2c(C(F)(F)F)cccc2C1(c1ccc(O)cc1)c1ccc(OC(F)(F)F)cc1 (racemic) [(±)-105, 3-(4-hydroxyphenyl)-3-(4-(trifluoromethoxy)phenyl)-7-(trifluoromethyl)indolin-2-one] | neither BHPI nor any of the test compounds induce significant death | kills |  |  |  |  |
| O=C1Nc2c(C(F)(F)F)cccc2C1(c1ccc(O)cc1)c1ccc(OC(F)(F)F)cc1 (single isomer, unassigned; (-)) [(−)-105, 3-(4-hydroxyphenyl)-3-(4-(trifluoromethoxy)phenyl)-7-(trifluoromethyl)indolin-2-one] |  |  | active | eradicates | much stronger UPR hyper-activator and inducer of sp-XBP1 than BHPI | quantitatively kills |
